Measurements reported in patent US9642859B2, “Use of capsazepine and analogs thereof to treat cancer” (THE BOARD OF REGENTS OF THE UNIVERSITY OF TEXAS SYSTEM, priority 2012, dated 2017).
“Also recorded” adds a separate entry of the source.

Legend:
[1] = rat model, high intravenous administration dose; cited from earlier work
[2] = system: nicotinic acetylcholine receptors; settings: cited from earlier work
[3] = system: MDA231 breast cancer cells; experiment: Cell viability assay of MDA231 cells with and without NAC; type: cell-based, human; settings: 24 h
HSC3 = experiment: Cell cycle analysis by DNA profile FACS, HSC3; type: cell-based, human; settings: 24 hours
Procedure: (§1) In particular, Table 1 provides additional cell cycle distribution data of OSCC cells (%) treated with 0 μM, 30 μM, 60 μM, or 90 μM CPZ for 24 hours. Data for OSCC cell lines HSC3, SCC4, and SCC25 are also provided in diagrams of FIGS. 1G-1, 1G-2, and 1G-3, respectively.

SCC25 = experiment: Cell cycle analysis by DNA profile FACS, SCC25; type: cell-based, human; settings: 24 hours
Procedure: as §1

[4] = system: OSCC cell lines (HSC3, SCC4, and SCC25); experiment: Western blot analysis of cleaved PARP; type: cell-based, human; settings: increasing doses of CPZ, 24 h
Procedure: FIG. 1F. […] The Control (Ctrl) is […].
as §1

OSCC xenografts = experiment: TUNEL staining of OSCC xenografts; type: in vivo, mice; settings: CPZ treated xenografts, p<0.001
Procedure: FIG. 15A-15C. TUNEL staining of OSCC xenografts. FIG. 15A: Representative photomicrograph of TUNEL stain of HSC3 xenograft (10×) treated with vehicle control. […] FIG. 15B: Number of apoptotic figures per field in vehicle and 40 μg capsazepine (CPZ) treated SCC4 xenografts. FIG. 15C: Number of apoptotic figures per field in vehicle and CPZ (20 m) treated SCC25 xenografts. Student's T-Test of the average of six fields with n=3; ***p<0.001.
At the conclusion of the experiment, serum was collected for liver and kidney function analysis. […] Tumors were analyzed histologically using H&E (hematoxylin and eosin) and TUNEL (terminal deoxyribonucleotidyl transferase-mediated dUTP nick end labeling) staining for detection of DNA fragmentation associated with apoptosis, and apoptotic figures were quantified. [FIGS. 15-1 to 15-3] […] Therefore, CPZ empirically has shown promise for being a well-tolerated treatment for OSCC.

SCC4 = experiment: Additional cell proliferation assay, SCC4; type: cell-based, human; settings: SCC4, 24 hour treatment
Text: (§2) Observed reductions in cell proliferation in these additional in vitro studies are as follows: SCC4, 40%; HSC3, 50%; SCC25, 80%; Cal27, 15%; MDA231, 56%; and LnCap, 37%.

[5] = system: immortalized human bronchiolar epithelial cell line transformed with a TRPV1 insert; settings: TRPV1-overexpressing cultured cells; cited from earlier work
HSC3 cells = experiment: Cell viability assay of HSC3 cells, dose response curve; type: cell-based; settings: Homo sapiens, HSC-3, HSC3 cells, FIG. 1K
Text: FIG. 1K. Cell viability assay of HSC3 cells treated with increasing concentrations of curcumin; […]

Cal27 = experiment: Additional cell proliferation assay, Cal27; type: cell-based, human; settings: Cal27, 24 hour treatment
Text: as §2

OKF6 cells = experiment: Cell viability assay of immortalized non-malignant oral keratinocytes; type: cell-based; settings: 24 hours
Text: FIG. 1D-2. […] Treatment with high concentrations of CAP induces death of normal, non-malignant OKF6 cells. The effect of which was reversed by the pre-treatment with CPZ.

OSCC cell lines = experiment: ROS assays by flow cytometry (DCF-DA); type: cell-based, human; settings: 30 μM capsazepine, 1 h
Procedure: FIGS. 1I-1 to 1I-3. Reactive oxygen species (ROS) assays. The level of ROS in OSCC cell lines was examined by flow cytometry using 2,7-dichlorodihydrofluorescein diacetate (DCFH-DA; Sigma). Approximately 3×10^5 cells were plated in 12-well plates. To detect ROS, cells were incubated for 30 min at 37° C. with DCF-DA, washed and then treated for 1 h with 30 μM capsazepine (grey, thick line), 150 μM capsaicin (grey, thin line), 30 μM capsazepine+150 μM capsaicin (black line), or vehicle control (dotted line). The cells were harvested, washed twice, and analyzed by flow cytometry.
FIGS. 1I-4(a)-(b) to 1I-6(a)-(b). Induction of ROS in OSCC cell lines. (a). ROS induction in OSCC cell lines following 1 h treatment with 30 μM CPZ (black line) compared to vehicle control. (b). ROS induction in OSCC cell lines following 1 h treatment with 30 μM CPZ is reversed by NAC co-treatment (black line) as indicated in the shift in their peaks to the left.
ROS levels in OSCC cell lines were examined by flow cytometry using 2,7-dichlorodihydrofluorescein diacetate (DCF-DA; Sigma-Aldrich, St. Louis, Mo.). Cells (3×10^5) were plated in 12-well plates and incubated for 30 min with DCF-DA at 37° C. then treated with 30 μM capsazepine using phenol free media with and without 10 mM NAC. Treated cells were incubated for 1 h at 37° C., harvested, washed twice, and analyzed by FACS.

[6] = system: voltage-activated calcium channels; settings: cited from earlier work

For `Oc1cc2c(cc1O)CN(C(=S)NCCc1ccc(Cl)cc1)CCC2` [CPZ, 2-[2-(4-chlorphenyl)ethylamino-thiocarbonyl]-7,8-dihydroxy-2,3,4,5-tetrahydro-1H-2-benzazepine], the hyperthermia [1] is listed as “does not cause hyperthermia”, the “effect on nicotinic acetylcholine receptors” value [2] is listed as “Inhibitis” and the cytotoxicity [3] is listed as “significant dose dependent cytotoxicity”. For the same compound, the G0/G1 (HSC3; HSC3, CPZ 30 μM) was 47.76%, the G2/M (HSC3; HSC3, CPZ 30 μM) was 20.3% and the S (HSC3; HSC3, CPZ 30 μM) was 13.47%. The SubG1 (HSC3; HSC3, CPZ 30 μM) was 18.47%, the G0/G1 (HSC3; HSC3, CPZ 60 μM) was 24.09% and the G2/M (HSC3; HSC3, CPZ 60 μM) was 7.37%. The S (HSC3; HSC3, CPZ 60 μM) was 11.23%, the SubG1 (HSC3; HSC3, CPZ 60 μM) was 57.31% and the G0/G1 (HSC3; HSC3, CPZ 90 μM) was 23.53%. The G2/M (HSC3; HSC3, CPZ 90 μM) was 5.08%, the S (HSC3; HSC3, CPZ 90 μM) was 10.27% and the SubG1 (HSC3; HSC3, CPZ 90 μM) was 61.12%. For the same compound, the G0/G1 (SCC25; SCC25, CPZ 30 μM) was 42.92%, the G2/M (SCC25; SCC25, CPZ 30 μM) was 3.3% and the S (SCC25; SCC25, CPZ 30 μM) was 9.01%. It also gave a SubG1 (SCC25; SCC25, CPZ 30 μM) of 44.77%, a G0/G1 (SCC25; SCC25, CPZ 60 μM) of 28.63% and a G2/M (SCC25; SCC25, CPZ 60 μM) of 6.11%. For the same compound, the S (SCC25; SCC25, CPZ 60 μM) was 14.78%, the SubG1 (SCC25; SCC25, CPZ 60 μM) was 50.48% and the G0/G1 (SCC25; SCC25, CPZ 90 μM) was 17.23%. It also gave a G2/M (SCC25; SCC25, CPZ 90 μM) of 2.5%, an S (SCC25; SCC25, CPZ 90 μM) of 10.36% and a SubG1 (SCC25; SCC25, CPZ 90 μM) of 69.91%. The “cleaved PARP (c-PARP, marker of apoptosis)” value [4] was “induction of cleaved PARP”, the “apoptotic figures in treated tumors (TUNEL)” value (OSCC xenografts) was “significant increase in apoptotic figures” and the “reduction in cell proliferation” value (SCC4) was 40%. The “reversal of CAP-induced apoptosis by CPZ” value [5] was “failed to reverse these effects”, the IC50 (HSC3 cells) was 30 µM and the “reduction in cell proliferation” value (Cal27) was 15%. The “effect of CPZ on CAP-induced reduction in cell viability” value (OKF6 cells; CAP 150 μM / CPZ 30 μM) was “reversed the effects”, the “toxicity on normal, non-malignant cells” value (OKF6 cells; CPZ 30 μM) was “non-toxic effect; also recorded: no toxicity was observed” and the “level of ROS” value (OSCC cell lines) was “increase in ROS”. The “effect on voltage-activated calcium channels” value [6] was “Inhibitis”.
